# Reference: ChEMBL document CHEMBL5365517, “Molecular Design of Cyclic Peptides with Cell Membrane Permeability and Development of MDMX-p53 Inhibitor” (ACS Med Chem Lett, 2023)
# Starred links: 1 amine or outer side, 2 acyl side, 3 side chain; linkers in the order of their positions; H or OH if unused. Non-standard residues stand in square brackets, D forms with d. Residues, ends and D or L forms follow the SMILES beside them. Ala(4-thiazolyl) = N[C@@H](Cc1cscn1)C(=O)O; Phe(4-Cl) = N[C@@H](Cc1ccc(Cl)cc1)C(=O)O; X1 = CCC(CC)C[C@@H](C(=O)[*:2])N(C)[*:1]; Phe(4-F) = N[C@@H](Cc1ccc(F)cc1)C(=O)O; NMeF = CN[C@@H](Cc1ccccc1)C(=O)O; NMeL = CN[C@@H](CC(C)C)C(=O)O; Ahp(2) = CCCCC[C@H](N)C(=O)O; Tle = CC(C)(C)[C@H](N)C(=O)O; hSer = N[C@@H](CCO)C(=O)O; NMeA = CN[C@@H](C)C(=O)O; dNMeA = CN[C@H](C)C(=O)O
# What was measured:
# [1] = target: T1, Protein Mdm4 (Homo sapiens, UniProt O15151); test: Inhibition of N-terminal biotin-his-tagged MDMX (24 to 108 residues)(unknown origin) binding to p53 incubated for 1 hr by Alphascreen assay
# T1 sequence (O15151 whole entry): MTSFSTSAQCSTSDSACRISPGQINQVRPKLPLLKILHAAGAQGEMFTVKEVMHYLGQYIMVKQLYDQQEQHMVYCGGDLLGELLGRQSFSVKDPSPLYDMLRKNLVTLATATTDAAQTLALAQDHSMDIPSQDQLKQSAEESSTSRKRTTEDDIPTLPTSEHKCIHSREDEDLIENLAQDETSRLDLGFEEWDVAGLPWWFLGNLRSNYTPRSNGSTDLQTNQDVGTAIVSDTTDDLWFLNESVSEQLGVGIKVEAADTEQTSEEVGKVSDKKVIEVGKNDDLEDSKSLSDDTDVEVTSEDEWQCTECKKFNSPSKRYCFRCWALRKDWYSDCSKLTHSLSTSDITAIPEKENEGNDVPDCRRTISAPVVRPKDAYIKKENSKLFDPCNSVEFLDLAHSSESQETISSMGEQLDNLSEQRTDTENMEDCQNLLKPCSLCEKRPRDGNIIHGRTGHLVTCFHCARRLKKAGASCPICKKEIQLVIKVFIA
# [2] = Apparent permeability across apical to basolateral side in MDCK-II cells at 10 uM incubated for 2 hrs by LC/MS/MS analysis; type: ADME, cell-based, Canis lupus familiaris; details: dog
IC50 [1] [nM],"Papp A→B at 2 h, 10 µM [2] [×10⁻⁶ cm/s]",Compound
70,0.8,CCCCC[C@@H]1NC(=O)[C@H](CC(C)C)N(C)C(=O)[C@H](Cc2ccc(F)cc2)NC(=O)[C@H](C)N(C)C(=O)[C@@H](C)N(C)C(=O)[C@H](Cc2cscn2)NC(=O)[C@H](C)N(C)C(=O)[C@H](CCOC)NC(=O)[C@H]2CCCN2C(=O)[C@H](CC(CC)CC)N(C)C1=O (cyclo([Ahp(2)][X1][dP][hSer](Me)[NMeA][Ala(4-thiazolyl)][dNMeA][NMeA][Phe(4-F)][NMeL]))
30,0.07,COCC[C@@H]1NC(=O)[C@H]2CCCN2C(=O)[C@H](Cc2ccccc2)N(C)C(=O)[C@H](Cc2ccc(Cl)cc2)NC(=O)[C@H](C(C)(C)C)NC(=O)[C@H](Cc2ccc(F)cc2)NC(=O)[C@H](C)N(C)C(=O)[C@@H](C)N(C)C(=O)[C@H](Cc2cscn2)NC(=O)[C@H](C)N(C)C1=O (cyclo([Ala(4-thiazolyl)][dNMeA][NMeA][Phe(4-F)][Tle][Phe(4-Cl)][NMeF][dP][hSer](Me)[NMeA]))
